Converted amounts (≈) assume the structure as drawn.
Assays:
L1210 [1] = assay: Compound was evaluated for the influx (Km) mediated transport with respect to L1210 cells; type: functional, cell-based; conditions: Mus musculus
Dihydrofolate reductase = target: T1, Dihydrofolate reductase (Mus musculus, UniProt P00375); assay: Compound was evaluated for inhibitory effect on dihydrofolate reductase (DHFR) from L1210 cells at Inhibitory constant (n=3); type: cell-based
T1 sequence (P00375 whole entry): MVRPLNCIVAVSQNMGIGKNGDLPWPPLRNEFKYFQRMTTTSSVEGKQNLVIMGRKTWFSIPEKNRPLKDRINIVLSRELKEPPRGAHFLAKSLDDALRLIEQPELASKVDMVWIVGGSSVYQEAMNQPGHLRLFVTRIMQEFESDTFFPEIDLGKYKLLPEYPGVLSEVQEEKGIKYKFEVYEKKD

L1210 [2] = assay: Compound was evaluated for rate of anabolism to polyglutamate accumulation in L1210 cells; type: functional, Mus musculus
L1210 [3] = assay: Compound was evaluated for the efflux (K) mediated transport with respect to L1210 cells; type: functional, cell-based; conditions: Mus musculus
P388 [4] = assay: (§1) Compound at a optimum dose level of 0.5 mg/kg was evaluated in vivo against Murine P388/0 […] cells (1 X 10E6 ip implant); type: organism-based; set-up: dose 0.5 mg/kg, route intraperitoneal; conditions: mouse
P388 [5] = assay: as §1; type: functional, Mus musculus; conditions: route intraperitoneal
P388 [6] = assay: Compound at a optimum dose level of 2 mg/kg was evaluated in vivo against Murine P388/MTX resistant cells (1 X 10E6 ip implant); type: functional, Mus musculus; conditions: route intraperitoneal
Lacticaseibacillus casei [7] = assay: Compound was evaluated for inhibitory effect on growth of Lactobacillus casei ATCC 7469; type: functional, organism-based
Lacticaseibacillus casei [8] = assay: Compound was evaluated for inhibitory effect on growth of Lactobacillus casei MTX resistant; type: functional, organism-based
Enterococcus faecium [9] = assay: Compound was evaluated for inhibitory effect on growth of Streptococcus faecium MTX resistant; type: functional, organism-based
Thymidylate synthase [10] = target: T2, Thymidylate synthase (Lactobacillus casei, UniProt P00469); assay: (§2) Compound was evaluated for inhibitory effect on the thymidylate synthase (TS) of Lactobacillus casei; set-up: species or system Lacticaseibacillus casei
T2 sequence (P00469 whole entry): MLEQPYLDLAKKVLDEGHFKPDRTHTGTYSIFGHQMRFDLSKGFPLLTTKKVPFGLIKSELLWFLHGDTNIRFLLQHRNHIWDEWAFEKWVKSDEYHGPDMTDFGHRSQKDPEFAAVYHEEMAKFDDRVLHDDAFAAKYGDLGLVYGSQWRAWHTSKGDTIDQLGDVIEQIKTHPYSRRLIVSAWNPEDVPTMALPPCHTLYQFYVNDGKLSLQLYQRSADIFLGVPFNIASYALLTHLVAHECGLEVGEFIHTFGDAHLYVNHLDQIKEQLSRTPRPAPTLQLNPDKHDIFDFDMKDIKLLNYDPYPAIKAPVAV

Enterococcus faecium [11] = assay: Compound was evaluated for inhibitory effect on growth of Streptococcus faecium ATCC 8043; type: functional, organism-based
Thymidylate synthase [12] = target: T2, Thymidylate synthase; assay: as §2; type: functional, Lacticaseibacillus casei
L1210 [13] = assay: cells; conditions: Mus musculus
L1210 [14] = assay: Compound was evaluated for the influx (Km) mediated transport with respect to L1210 cells.; type: functional, cell-based; conditions: Mus musculus
P388 [15] = assay: Compound at a optimum dose level of 0.5 mg/kg was evaluated in vivo against Murine P388/MTX resistant cells (1 X 10E6 ip implant); type: functional, Mus musculus; conditions: route intraperitoneal
[16] = Lacticaseibacillus casei, read-out: IC50

| Compound | Km (L1210 [1]) [µM] | Ki (Dihydrofolate reductase) [pM] | Rate (L1210 [2]) | K (L1210 [3]) [min⁻¹] | T/C (P388 [4]) [%] | Survival time (P388 [5]) [days] | Survival time (P388 [6]) [days] | IC50 (Enterococcus faecium [9]) [µg/mL] | IC50 (Enterococcus faecium [11]) [ng/mL] | IC50 (L1210 [13]) [nM] | further results |
| --- | --- | --- | --- | --- | --- | --- | --- | --- | --- | --- | --- |
| Nc1nc(N)c2nc(CNc3ccc(C(=O)N[C@@H](CCC(=O)O)C(=O)O)cc3)cnc2n1 [AMINOPTERIN] | 1.2 | 3.55 | 165 pM min-1 (g dry weight)-1 | 0.31 |  |  |  |  |  |  |  |
| CCOC(=O)CCC(NC(=O)c1ccc(NCc2cnc3nc(N)nc(N)c3c2)cc1)C(=O)OCC (stereo not given) |  |  |  |  | 151 | 16.2 | 20.8 |  |  |  |  |
| Cc1c(CN(C)c2ccc(C(=O)NC(CCC(=O)O)C(=O)O)cc2)cnc2nc(N)nc(O)c12 (stereo not given) |  |  |  |  |  |  |  | > 10 | 30 (≈ 0.064 µM) |  | IC50 (Lacticaseibacillus casei [7]): 4.6 ng/mL (≈ 0.00982 µM); IC50 (Lacticaseibacillus casei [8]; [16]): > 10 µg/mL; IC50 (Thymidylate synthase [10]): 2.77 nM |
| Nc1nc(O)c2cc(CNc3ccc(C(=O)NC(CCC(=O)O)C(=O)O)cc3)cnc2n1 (stereo not given) |  |  |  |  |  |  |  | 0.049 (≈ 0.111 µM) | 0.09 (≈ 0.000204 µM) |  | IC50 (Lacticaseibacillus casei [7]): 0.054 ng/mL (≈ 0.000123 µM); IC50 (Lacticaseibacillus casei [8]; [16]): 3.5 µg/mL (≈ 7.95 µM); IC50 (Thymidylate synthase [12]): 1700 nM |
| CN(Cc1cnc2nc(N)nc(N)c2c1)c1ccc(C(=O)NC(CCC(=O)O)C(=O)O)cc1 (stereo not given) |  | 5.26 | 48.8 pM min-1 (g dry weight)-1 | 0.28 | 166 | 18 | 20.3 |  |  | 2.85 | Km (L1210 [14]): 4 µM |
| CN(Cc1cnc2nc(N)nc(N)c2n1)c1ccc(C(=O)N[C@@H](CCC(=O)O)C(=O)O)cc1 [METHOTREXATE] | 3.3 |  |  | 0.33 | 182 | 19.7 | 20.3 | 3 (≈ 6.6 µM) | 0.26 (≈ 0.000572 µM) |  | IC50 (Lacticaseibacillus casei [8]): > 500 µg/mL |
| Cc1c(CNc2ccc(C(=O)NC(CCC(=O)O)C(=O)O)cc2)cnc2nc(N)nc(N)c12 (stereo not given) | 1.2 | 2.93 | 98.3 pM min-1 (g dry weight)-1 | 0.26 | 151 | 16.4 |  |  |  | 0.13 | Survival time (P388 [15]): 20.8 days |
| Cc1c(CNc2ccc(C(=O)NC(CCC(=O)O)C(=O)O)cc2)cnc2nc(N)nc(O)c12 (stereo not given) |  |  |  |  |  |  |  | > 10 | 380 (≈ 0.836 µM) |  | IC50 (Lacticaseibacillus casei [7]): 0.57 ng/mL (≈ 0.00125 µM); IC50 (Lacticaseibacillus casei [8]; [16]): > 10 µg/mL |
| Nc1nc(N)c2cc(CNc3ccc(C(=O)NC(CCC(=O)O)C(=O)O)cc3)cnc2n1 (stereo not given) | 1.1 | 3.65 | 84.2 pM min-1 (g dry weight)-1 | 0.3 | 146 | 15.8 | 21.8 |  |  | 0.63 |  |
| Cc1c(CN(C)c2ccc(C(=O)NC(CCC(=O)O)C(=O)O)cc2)cnc2nc(N)nc(N)c12 (stereo not given) | 3.2 | 2.12 | 42.9 pM min-1 (g dry weight)-1 | 0.31 | 182 | 19.7 | 20.8 |  |  | 0.24 |  |
| CCN(Cc1cnc2nc(N)nc(N)c2c1C)c1ccc(C(=O)NC(CCC(=O)O)C(=O)O)cc1 (stereo not given) | 3.3 | 2.64 |  | 0.29 |  |  |  |  |  | 0.26 |  |

From ChEMBL document CHEMBL1123527 (J Med Chem, 1986)
